Results from US20110021625A1, “NEURONAL CELL DEATH INHIBITOR” (LEAD CHEMICAL CO., LTD., priority 2008, published 2011).

What was measured:
Type in all cases: cell-based, SD rats
[1] = tested on: rat cerebral cortical neurons treated with Aβ(1-42); assay: Measurement of dendrite atrophy induced by Aβ(1-42) (MAP2 immunostaining); details: 5 μM Aβ(1-42), after 3 days each of Compounds 5, 11, 21, and 22 (1 μM), another 5 days; FIG. 5; vs control group
Experimental: Cerebral cortical neurons of SD rats (embryonic day 18) were primary cultured. The neurons were seeded in an 8-well culture slide at a density of 2.6×10^5 cells/cm^2. After 5 days, the neurons were treated with 5 μM Aβ(1-42), and after another 3 days, treated with each of Compounds 5, 11, 21, and 22 (each 1 μM). After another 5 days, immunostaining was carried out. The used primary antibody was a rabbit polyclonal antibody against MAP2 that is as a marker protein of the dendrite (a dilution degree of 500; Chemicon, Temecula, Calif., USA). The used secondary antibody was Alexa Fluor 568 labeled goat anti-rabbit IgG (a dilution degree of 300; Molecular Probes, Carlsbad, Calif., USA). The neurons were observed under a fluorescence microscope AX-80 (Olympus, Tokyo, Japan) and the fluorescence image was obtained. The average length of the dendrites per neuron was measured with Neurocyte Ver. 1.5 (Toyobo, Osaka, Japan). The group without the Aβ(1-42) treatment and the administration of any medical agents was defined as a control group, and the group with the Aβ(1-42) treatment but without the administration of any medical agents was defined as a vehicle group.

[2] = tested on: rat cerebral cortical neurons treated with Aβ(1-42); assay: Measurement of axon atrophy induced by Aβ(1-42) (phosphorylated neurofilament H immunostaining); details: 5 μM Aβ(1-42), after 3 days each of Compounds 5, 11, 21, and 22 (1 μM), another 5 days; FIG. 6; vs control group
Experimental: Cerebral cortical neurons of SD rats (embryonic day 18) were primary cultured. The neurons were seeded in an 8-well culture slide at a density of 2.6×10^5 cells/cm^2, after 5 days, treated with 5 μM Aβ(1-42), and after another 3 days, treated with each of Compounds 5, 11, 21, and 22 (each 1 μM). After another 5 days, immunostaining was carried out. The used primary antibody was a mouse monoclonal antibody against phosphorylated neurofilament H that is a marker protein of the axon (a dilution degree of 500; Sternberger Monoclonals, MD, USA). The used secondary antibody was Alexa Fluor 488 labeled goat anti-[…] IgG (a dilution degree of 300; Molecular Probes, Carlsbad, Calif., USA). The neurons were observed under a fluorescence microscope AX-80 (Olympus, Tokyo, Japan) and the fluorescence image was obtained. The average length of the axons per neuron was measured with Neurocyte Ver. 1.5 (Toyobo, Osaka, Japan). The group without the Aβ(1-42) treatment and the administration of any medical agents was defined as a control group, and the group with the Aβ(1-42) treatment but without the administration of any medical agents was defined as a vehicle group.

[3] = tested on: rat cerebral cortical neurons treated with Aβ(25-35); assay: Measurement of neuronal cell death induced by Aβ(25-35) (calcein AM uptake, cell viability); details: 10 μM Aβ(25-35) and Compound 11 100 nM, 8-well culture slide, 4 days; FIG. 2; vs control group
Experimental: Cerebral cortical neurons of SD rats (embryonic day 18) were primary cultured. The neurons were seeded in a 24-well culture dish at a density of 2.86×10^5 cells/cm^2, and after 3 days, simultaneously treated with 10 μM partial peptide including the 25 to 35-amino acid residue of Aβ (hereinafter called Aβ(25-35)) and each of Compounds 1 to 5 (100 nM). After another 4 days, 6 μM calcein AM was added, the whole was incubated for 40 minutes at 37° C., and the fluorescence intensity at 485 nm was measured so that the uptake of calcein AM into the neurons was calculated to determine the cell viability. The group without the Aβ(25-35) treatment and the administration of any medical agents was defined as a control group, and the group with the Aβ(25-35) treatment but without the administration of any medical agents was defined as a vehicle group.
Separately, the neurons were seeded in an 8-well culture slide at a density of 2.14×10^5 cells/cm^2, and after 5 days, simultaneously treated with 10 μM Aβ(25-35) and Compound 11 (100 nM). After another 4 days, 6 μM calcein AM was added, and the whole was incubated for 40 minutes at 37° C. Then the neurons were fixed, and the fluorescence image was obtained under a fluorescence microscope AX-80. The uptake of calcein AM into the neurons was quantitatively analyzed with an ATTO Densitograph (ATTO, Tokyo, Japan) to determine the cell viability. […]

SMILES | dendrite outgrowth effect (average length of the dendrites per neuron) [1] | axon outgrowth effect (average length of the axons per neuron) [2] | cell viability (uptake of calcein AM, fluorescence image) [3]
COc1cc2c(cc1O)C1(C#N)CCC3(OCCO3)C3=COC(C2)C31 (stereo not drawn) [Compound 22, 9-hydroxy-8-methoxy-2,3,5a,10c-tetrahydro-1H,6H-5-oxa-3-oxo-acephenanthrylene-10b-carbonitrile ethylene ketal] | dendrite outgrowth effect remarkably higher than that of the control group | axon outgrowth effect remarkably higher than that of the control group | –
N#CC12CCC3(OCCO3)C3=COC(Cc4ccc(O)cc41)C32 (stereo not drawn) [Compound 11, 9-hydroxy-2,3,5a,10c-tetrahydro-1H,6H-5-oxa-3-oxo-acephenanthrylene-10b-carbonitrile ethylene ketal] | – | – | cell viability remarkably higher than that of the control group
